Source: PubChem BioAssay (NCI)
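Five concentrations, 48 hours, 96-well plates. Here, GI50 denotes the concentration required for 50% inhibition of growth. TGI marks complete inhibition of growth.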

How the values were obtained:
Test in all cases: inhibition of tumour cell growth, NCI panel, 48 h
A549 NSCLC = tested on: A549 NSCLC
BT-549 breast = tested on: BT-549 breast
CAKI-1 renal = tested on: CAKI-1 renal
HOP-92 NSCLC = tested on: HOP-92 NSCLC
NCI-H226 lung = tested on: NCI-H226 lung
RXF 393 renal = tested on: RXF 393 renal
SK-MEL-2 melanoma = tested on: SK-MEL-2 melanoma
SNB-19 CNS = tested on: SNB-19 CNS
SW-620 colon = tested on: SW-620 colon
UACC-257 melanoma = tested on: UACC-257 melanoma

SMILES | GI50 (A549 NSCLC) | TGI (A549 NSCLC) | GI50 (BT-549 breast) | TGI (BT-549 breast) | GI50 (CAKI-1 renal) | TGI (CAKI-1 renal) | GI50 (HOP-92 NSCLC) | TGI (HOP-92 NSCLC) | GI50 (NCI-H226 lung) | TGI (NCI-H226 lung) | GI50 (RXF 393 renal) | TGI (RXF 393 renal) | GI50 (SK-MEL-2 melanoma) | TGI (SK-MEL-2 melanoma) | GI50 (SNB-19 CNS) | TGI (SNB-19 CNS) | GI50 (SW-620 colon) | TGI (SW-620 colon) | GI50 (UACC-257 melanoma) | TGI (UACC-257 melanoma)
CN(C)CCN1C(=O)c2cccc3c(/C=C/CN4C(=O)c5cccc6cccc(c56)C4=O)ccc(c23)C1=O | > 100 µM | > 100 µM | 43.5 µM | > 100 µM | 13.4 µM | 28.6 µM | 3.67 µM | 20.1 µM | 1.92 µM | 35.4 µM | 59.2 µM | > 100 µM | > 100 µM | > 100 µM | 13.9 µM | 26.9 µM | > 100 µM | > 100 µM | > 100 µM | > 100 µM
CCOC(=O)c1c(-c2ccccc2)[n+](=O)c2cc(F)c(F)cc2n1[O-] | 2.14 µM | 4.46 µM | 1.6 µM | 3.26 µM | 1.61 µM | 3.12 µM | 1.14 µM | 2.73 µM | 2.73 µM | 6.92 µM | 1.38 µM | 4.1 µM | 3.47 µM | > 100 µM | 1.95 µM | 3.45 µM | 0.494 µM | 3.57 µM | 2.09 µM | 3.88 µM
CCN1CCN(c2cc(C(=O)Nc3cccc(Nc4ccc5c(OC)cccc5n4)c3)cc(C(F)(F)F)c2)CC1 | 1.05 µM | 5.28 µM | 3.78 µM | 8.67 µM | 0.917 µM | 4.97 µM | 1.26 µM | 4.66 µM | 2.85 µM | 25.4 µM | 0.918 µM | 4.86 µM | 5.3 µM | 11 µM | 2.1 µM | 7.01 µM | 3.67 µM | 8.77 µM | 1.02 µM | 3.6 µM
CC(C)C[C@H](NC(=O)Cn1cccc(CNC(=O)c2ccccc2)c1=O)B(O)O | 4.54 µM | > 100 µM | 0.162 µM | 1.54 µM | 3.7 µM | 44.9 µM | 0.638 µM | 4.61 µM | 0.202 µM | 0.457 µM | 0.316 µM | 1.1 µM | 0.384 µM | 2.79 µM | 0.495 µM | > 100 µM | 0.345 µM | 6.85 µM | 0.505 µM | 3.53 µM
COc1ccc(CSC2=C(C#N)C(=O)NC3(CCCCC3)S2)cc1 |  | > 100 µM |  | > 100 µM |  | > 100 µM |  | > 100 µM |  | > 100 µM |  | > 73.3 µM |  | > 100 µM |  | > 100 µM |  | > 100 µM |  | > 100 µM
CC1CCCC(C#N)(NOC2=NCCN2)C1 (stereo not given) | 63.4 µM | > 100 µM | 19 µM | 42.3 µM | 22.7 µM | 79 µM | 36.5 µM | 75.1 µM | 17.2 µM | 37 µM | 65.1 µM | > 100 µM | 57.3 µM | > 100 µM | > 100 µM | > 100 µM | 36.3 µM | > 100 µM | 97.5 µM | > 100 µM
OCCCCC#Cc1ccccc1C#Cc1cccnc1 | 25.5 µM | 80.2 µM | 28.4 µM | > 100 µM | 29.1 µM | 83.5 µM | 38.2 µM | > 100 µM | 34.1 µM | > 100 µM | 5.95 µM | 28.6 µM | 87.9 µM | > 100 µM | 49.3 µM | > 100 µM | 45.2 µM | > 100 µM | 25 µM | 54.1 µM
NC1=NC(SCc2ccccc2CCl)c2ncn(Cc3ccccc3CCl)c2N1 (stereo not given) | 2.04 µM | 5.01 µM | 1.7 µM | 3.35 µM | 1.77 µM | 3.82 µM | 1.1 µM | 2.39 µM | 1.9 µM | 4.7 µM | 1.48 µM | 2.85 µM | 2.06 µM | 4.89 µM | 4.83 µM | 23.2 µM | 1.54 µM | 3.57 µM | 1.54 µM | 3.07 µM
CN1CCN(C(=O)c2ccc(NC(=O)Nc3ccc(-c4nc(N5CCOCC5)c5cccn5n4)cc3)cc2)CC1 | 0.0606 µM | 12.1 µM | 0.104 µM | 0.789 µM | 0.542 µM | 10.7 µM | 0.0193 µM | 0.0759 µM | 0.0306 µM | 0.345 µM | 0.0307 µM | 0.175 µM | 0.0596 µM | 1.39 µM | 0.0363 µM | 11.1 µM | 0.0634 µM | 12.1 µM | 0.102 µM | 0.576 µM
O=C1NC(=O)C(c2cccc(Cl)c2)=C1Nc1ccc(Cl)c(C(=O)O)c1 | > 25 µM | > 25 µM | > 25 µM | > 25 µM | > 25 µM | > 25 µM | > 25 µM | > 25 µM | > 25 µM | > 25 µM | > 25 µM | > 25 µM | > 25 µM | > 25 µM | > 25 µM | > 25 µM | > 25 µM | > 25 µM | > 25 µM | > 25 µM
COC(=O)CC1(O)C=CC(=O)C=C1 |  | 39.4 µM |  | 18.1 µM |  | 11.6 µM |  | 22.6 µM |  | 26.8 µM |  | 17.9 µM |  | 14.6 µM |  | 21.3 µM |  | 27.3 µM |  | 7.64 µM
O=c1[nH]c2ccccc2c(O)c1/C=N/C(=S)NC1CCCCC1 |  | > 100 µM |  | > 100 µM |  | > 100 µM |  | > 100 µM |  | > 100 µM |  | > 100 µM |  | > 100 µM |  | > 100 µM |  | > 100 µM |  | > 100 µM
CN1CCN(CCCOc2ccc3nc(Nc4ccc(F)c(F)c4)ccc3c2)CC1 | 2.19 µM | 5.26 µM | 2.34 µM | 9.86 µM | 1.67 µM | 3.95 µM | 1.1 µM | 3.6 µM | 10.8 µM | 29.9 µM | 1.52 µM | 4.36 µM | 1.91 µM | 3.8 µM | 2.08 µM | 4.79 µM | 1.82 µM | 3.71 µM | 1.76 µM | 3.27 µM
Nc1c(C(=O)c2cccc(C(O)CO)c2)cnn1-c1ccc(F)cc1 (stereo not given) | > 25 µM | > 25 µM | > 25 µM | > 25 µM | > 25 µM | > 25 µM | > 25 µM | > 25 µM | > 25 µM | > 25 µM | > 25 µM | > 25 µM | > 25 µM | > 25 µM | > 25 µM | > 25 µM | > 25 µM | > 25 µM | > 25 µM | > 25 µM
COc1ccc2c(c1O)[C@@]13CCCC=C1[C@@H](C2)[N+](C)(C)CC3 |  | > 100 µM |  | > 100 µM |  | > 100 µM |  | > 100 µM |  | > 100 µM |  | > 100 µM |  | > 100 µM |  | > 100 µM |  | > 100 µM |  | > 100 µM
CCC[CH2][Sn]([CH2]CCC)([CH2]CCC)/[C](=C/[Si](C)(C)c1ccccc1)c1ccc2c(c1)OCO2 | 25.2 µM | 82.9 µM | 19.1 µM | 44.3 µM | 16 µM | 48.2 µM | 11.4 µM | 29.4 µM | 19.9 µM | 42.9 µM | 22.1 µM | 41.2 µM | 23.5 µM | 63.5 µM | 21.3 µM | 49.7 µM | 20.9 µM | 59.3 µM | 22.4 µM | 58.7 µM
COc1cc(C)cc(C(=O)/C=C/c2ccccc2)c1O |  | > 100 µM |  | 37.8 µM |  | 39.1 µM |  | 31.2 µM |  | 73.9 µM |  | 35.7 µM |  | 48.2 µM |  | 38.5 µM |  | 52.3 µM |  | 37.7 µM
Nc1nc(Cl)nc2c1ncn2C1OC(CO)C(O)C1F (stereo not given) | 0.144 µM | > 100 µM | 0.664 µM | > 37.6 µM | 0.0351 µM | 0.959 µM | 0.124 µM | > 68 µM | 0.216 µM | > 17.3 µM | 12.8 µM | > 100 µM | > 100 µM | > 100 µM | 0.191 µM | > 100 µM | 0.839 µM | > 100 µM | 4.17 µM | > 100 µM
